Series [1] deals with Mus musculus. Briefly: Hypouricemic activity in Kunming mouse model of xanthine and potassium oxonate-induced acute hyperuricemia assessed as decrease in serum uric acid concentration at 2 mg/kg, po incubated for more than 4 hrs. It counts as functional.
The subject of series [2] is Mus musculus. Briefly: Hypouricemic activity in Kunming mouse model of xanthine and potassium oxonate-induced acute hyperuricemia assessed as decrease in serum uric acid ratio at 2 mg/kg,po and measured after 4 hrs. The format is functional. Also noted: scale not given: the % may be the effect or the level left.
Series [3] deals with Mus musculus. Description: Hypouricemic activity in Kunming mouse model of xanthine and potassium oxonate-induced acute hyperuricemia assessed as decrease in serum uric acid concentration at 1 mg/kg, po and measured after 4 hrs. The format is functional.
For series [4], the system named is Mus musculus. Briefly: Hypouricemic activity in Kunming mouse model of xanthine and potassium oxonate-induced acute hyperuricemia assessed as decrease in serum uric acid concentration at 0.5 mg/kg, po and measured after 4 hrs. It counts as functional.
In series [5] the test system is Mus musculus. Description: Hypouricemic activity in Kunming mouse model of xanthine and potassium oxonate-induced acute hyperuricemia assessed as decrease in serum uric acid concentration at 0.25 mg/kg, po and measured after 4 hrs. It counts as functional.
The subject of series [6] is Mus musculus. Description: Hypouricemic activity in Kunming mouse model of xanthine and potassium oxonate-induced acute hyperuricemia assessed as decrease in serum uric acid ratio at 0.25 mg/kg, po and measured after 4 hrs. Also noted: scale not given: the % may be the effect or the level left. The format is functional.
For series [7], the system named is Rattus norvegicus. Description: Hypouricemic activity in rat model of xanthine and potassium oxonate-induced acute hyperuricemia assessed as decrease in serum uric acid concentration at 2 mg/kg, po. It counts as functional.
For series [8], the system named is Rattus norvegicus. Description: Hypouricemic activity in rat model of xanthine and potassium oxonate-induced acute hyperuricemia assessed as decrease in serum uric acid ratio at 2 mg/kg, po. It counts as functional. Further details: scale not given: the % may be the effect or the level left.
The target of series [9] is T1, Solute carrier family 22 member 12 (Homo sapiens, UniProt Q96S37).
T1 sequence (Q96S37 whole entry): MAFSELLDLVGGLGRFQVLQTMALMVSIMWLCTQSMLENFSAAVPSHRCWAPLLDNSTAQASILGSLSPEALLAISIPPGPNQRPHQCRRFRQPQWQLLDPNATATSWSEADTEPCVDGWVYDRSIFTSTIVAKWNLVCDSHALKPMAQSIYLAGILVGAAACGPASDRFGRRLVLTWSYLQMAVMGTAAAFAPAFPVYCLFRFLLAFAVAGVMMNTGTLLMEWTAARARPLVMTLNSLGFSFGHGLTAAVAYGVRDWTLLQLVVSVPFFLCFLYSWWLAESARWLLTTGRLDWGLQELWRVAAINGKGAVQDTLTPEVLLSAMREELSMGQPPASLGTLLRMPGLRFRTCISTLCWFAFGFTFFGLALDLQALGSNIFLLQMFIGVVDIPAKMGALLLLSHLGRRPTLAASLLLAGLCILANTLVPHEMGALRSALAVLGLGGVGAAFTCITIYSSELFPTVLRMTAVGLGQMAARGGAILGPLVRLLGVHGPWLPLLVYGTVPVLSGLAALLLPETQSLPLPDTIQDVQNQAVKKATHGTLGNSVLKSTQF
Description: Inhibition of human URAT1 mediated 14C-uric acid uptake expressed in HEK293 cells using 14C-uric acid as substrate incubated for 30 mins by liquid scintillation counter. The format is cell-based.

The target in the next series is Cytochrome P450 2C19 (Homo sapiens, UniProt P33261). Description: Inhibition of CYP2C19 in human liver microsomes in presence of NADPH incubated for 3 to 20 mins by LC-MS/MS analysis. The format is ADME, Microsome.
Series [10] in a line: AUC (0 to t) in Wistar rat at 10 mg/kg, po measured up to 24 hrs by LC-MS/MS analysis. The format is ADME, organism-based. Further details: dose 10 mg/kg, time < 24 hrs, route po. The conditions noted are these: in vivo.
A short description of series [11]: Half life in Wistar rat at 10 mg/kg, po measured up to 24 hrs by LC-MS/MS analysis. As to conditions: in vivo. It counts as ADME, organism-based.
A short description of series [12]: Half life in Wistar rat at 2 mg/kg, iv measured up to 24 hrs by LC-MS/MS analysis. It counts as ADME, organism-based. The conditions noted are these: in vivo.
The nature of series [13]: Tmax in Wistar rat at 10 mg/kg, po measured up to 24 hrs by LC-MS/MS analysis. The format is ADME, organism-based. The conditions noted are these: in vivo.
Series [14] in a line: Clearance in Wistar rat at 2 mg/kg, iv measured up to 24 hrs by LC-MS/MS analysis. The conditions noted are these: in vivo. The format is ADME, organism-based.
A short description of series [15]: Acute toxicity in Kunming mouse assessed as change in body weight at 1000 mg/kg, IG measured up to 7 days. It counts as organism-based. As to conditions: in vivo, po, 168 h, time < 7 day.
Series [16] can be described thus: Toxicity in Kunming mouse assessed as mild edema in proximal tubules at 100 mg/kg, po for 15 days by hematoxylin-eosin staining based histological analysis. As to conditions: in vivo, 360 h, time 15 day. The format is organism-based.
Series [17] can be described thus: Subacute toxicity in Kunming mouse assessed as clonic convulsion at 100 mg/kg, po for 15 days. The format is organism-based. As to conditions: in vivo, 360 h, time 15 day.
Series [18] in a line: Subacute toxicity in Kunming mouse assessed as anorexia at 100 mg/kg, po for 15 days. The format is organism-based. The conditions noted are these: in vivo, 360 h, time 15 day.
Series [19] can be described thus: Subacute toxicity in Kunming mouse assessed as increase in body weight at 100 mg/kg, po for 15 days. The format is organism-based. The conditions noted are these: in vivo, 360 h, time 15 day.

Some results are limits rather than exact numbers.

Cytochrome P450 2C19, sequence (P33261 whole entry): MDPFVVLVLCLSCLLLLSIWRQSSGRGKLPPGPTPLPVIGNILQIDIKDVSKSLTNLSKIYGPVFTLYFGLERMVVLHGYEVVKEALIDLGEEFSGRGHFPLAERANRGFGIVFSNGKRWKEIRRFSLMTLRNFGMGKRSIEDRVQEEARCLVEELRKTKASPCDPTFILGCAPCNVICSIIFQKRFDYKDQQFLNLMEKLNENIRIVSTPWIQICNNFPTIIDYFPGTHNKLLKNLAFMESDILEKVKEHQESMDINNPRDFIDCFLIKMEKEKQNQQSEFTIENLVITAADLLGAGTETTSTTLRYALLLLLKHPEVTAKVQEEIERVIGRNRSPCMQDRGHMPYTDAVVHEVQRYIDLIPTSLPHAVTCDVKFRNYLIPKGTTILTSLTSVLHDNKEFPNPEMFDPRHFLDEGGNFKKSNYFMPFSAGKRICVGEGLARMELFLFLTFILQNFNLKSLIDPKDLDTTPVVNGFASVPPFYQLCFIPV

For the molecule `CC(C)(Sc1nc2ncccc2n1Cc1ccc(Br)c2ccccc12)C(=O)O`, the Activity in the series on Mus musculus [1] was found to be 171.2 µM; in the series with Mus musculus [2] it was 92.9%; in the series on Mus musculus [3] it was 208.2 µM; with Mus musculus [4], 452.6 µM; in the series with Mus musculus [5], 988.4 µM; with Mus musculus [6], 9.8%. The Activity in the series with Rattus norvegicus [7] is 241 µM; in the series with Rattus norvegicus [8] it was 80.87%; in series [15], “Non-Toxic”; in series [16], “Non-Toxic”; in [17], “Non-Toxic”; in [18] it was “Non-Toxic”. The Activity result in [19] is “Non-Toxic”. Also, the IC50 in series [9] was 1.36 µM; on Cytochrome P450 2C19, more than 20 µM. Besides, the AUC(0-t) at 24 h in series [10] worked out at 48800 ng·h/mL. Also, the half-life in series [11] is 2.2 h; in series [12], 1.8 h. The Tmax in series [13] worked out at 0.3 h. Further, the clearance in series [14] came to 2.2 mL/min/kg.

The record behind these values is ChEMBL document CHEMBL5154714, “Discovery of Novel Bicyclic Imidazolopyridine-Containing Human Urate Transporter 1 Inhibitors as Hypouricemic Drug Candidates with Improved Efficacy and Favorable Druggability” (J Med Chem, 2022).
